Test results published in PubChem BioAssay AID1259407 (Chemical Carcinogenesis Research Information System (CCRIS), 2018).
Calls of active or inactive are those of the source. How the calls were made is not given here.

Tested on: CCRIS mutagenicity, Ames/micronucleus/aberration tests
Assay: CCRIS mutagenicity studies
[1] = Test System: AMES SALMONELLA TYPHIMURIUM, Strain/Indicator: TA98, Metabolic Activation: NONE, Method: PREINCUBATION
[2] = Test System: AMES SALMONELLA TYPHIMURIUM, Strain/Indicator: TA98, Metabolic Activation: RAT, LIVER, S-9, PCB, Method: PREINCUBATION
[3] = Test System: AMES SALMONELLA TYPHIMURIUM, Strain/Indicator: TA100, Metabolic Activation: NONE, Method: PREINCUBATION
[4] = Test System: AMES SALMONELLA TYPHIMURIUM, Strain/Indicator: TA100, Metabolic Activation: RAT, LIVER, S-9, PCB, Method: PREINCUBATION

Measured: mutagenic call

CC[C@H](C)[C@H]1O[C@]2(C=C[C@@H]1C)C[C@@H]1C[C@@H](C/C=C(\C)[C@@H](O[C@H]3C[C@H](OC)[C@@H](O[C@H]4C[C@H](OC)[C@@H](NC)[C@H](C)O4)[C@H](C)O3)[C@@H](C)/C=C/C=C3\CO[C@@H]4[C@H](O)C(C)=C[C@@H](C(=O)O1)[C@]34O)O2
inactive: End Point: Ames Salmonella typhimurium, Test System: TA97a, Metabolic Activation: None inactive; negative | End Point: Ames Salmonella typhimurium, Test System: TA97a, Metabolic Activation: S-9 inactive; negative | End Point: Ames Salmonella typhimurium, Test System: TA98, Metabolic Activation: None inactive; negative | End Point: Ames Salmonella typhimurium, Test System: TA98, Metabolic Activation: S-9 inactive; negative | End Point: Ames Salmonella typhimurium, Test System: TA100, Metabolic Activation: None inactive; negative | End Point: Ames Salmonella typhimurium, Test System: TA100, Metabolic Activation: S-9 inactive; negative | End Point: Ames Salmonella typhimurium, Test System: TA1535, Metabolic Activation: None inactive; negative | End Point: Ames Salmonella typhimurium, Test System: TA1535, Metabolic Activation: S-9 inactive; negative | End Point: E. coli, Test System: WP2, Metabolic Activation: None inactive; negative | End Point: E. coli, Test System: WP2, Metabolic Activation: S-9 inactive; negative | End Point: E. coli, Test System: WP2uvrA pKM101, Metabolic Activation: None inactive; negative | End Point: E. coli, Test System: WP2uvrA pKM101, Metabolic Activation: S-9 inactive; negative | End Point: E. coli, Test System: WP2uvrA, Metabolic Activation: None inactive; negative | End Point: E. coli, Test System: WP2uvrA, Metabolic Activation: S-9 inactive; negative | End Point: Gene mutation, Test System: Chinese hamster V79 lung fibroblasts, Metabolic Activation: None inactive; negative | End Point: Gene mutation, Test System: Chinese hamster V79 lung fibroblasts, Metabolic Activation: S-9 inactive; negative | End Point: In vitro chromosomal aberrations, Test System: Chinese hamster ovary (CHO-WBL) cells, Metabolic Activation: None inactive; negative | End Point: In vitro chromosomal aberrations, Test System: Chinese hamster ovary (CHO-WBL) cells, Metabolic Activation: S-9 inactive; negative | End Point: In vivo chromosomal aberrations, Test System: Bone marrow cells, Species: Mouse, Route: Oral inactive; negative

Nc1ccc(Oc2ccc(N)c(Cl)c2)cc1Cl
inactive: [1] inactive; negative | [3] inactive; negative
active: [2] active; positive | [4] active; positive

O=C1CCCc2cc([N+](=O)[O-])c3ccccc3c21
active: Test System: AMES SALMONELLA TYPHIMURIUM, Strain/Indicator: TA98, Metabolic Activation: NONE active; positive | Test System: AMES SALMONELLA TYPHIMURIUM, Strain/Indicator: TA98, Metabolic Activation: S-9 active; positive | Test System: AMES SALMONELLA TYPHIMURIUM, Strain/Indicator: TA100, Metabolic Activation: NONE active; positive | Test System: AMES SALMONELLA TYPHIMURIUM, Strain/Indicator: TA100, Metabolic Activation: S-9 active; positive | Test System: AMES SALMONELLA TYPHIMURIUM, Strain/Indicator: TA100NR, Metabolic Activation: NONE active; positive | Test System: AMES SALMONELLA TYPHIMURIUM, Strain/Indicator: TA100NR, Metabolic Activation: S-9 active; positive
inactive: Test System: AMES SALMONELLA TYPHIMURIUM, Strain/Indicator: TA98-1,8-DNP6, Metabolic Activation: NONE inactive; negative | Test System: AMES SALMONELLA TYPHIMURIUM, Strain/Indicator: TA98-1,8-DNP6, Metabolic Activation: S-9 inactive; negative | Test System: AMES SALMONELLA TYPHIMURIUM, Strain/Indicator: TA98NR, Metabolic Activation: NONE inactive; negative | Test System: AMES SALMONELLA TYPHIMURIUM, Strain/Indicator: TA98NR, Metabolic Activation: S-9 inactive; negative

Nc1ncnc2nc(-c3ccc([N+](=O)[O-])cc3)[nH]c12
inactive: Test System: AMES SALMONELLA TYPHIMURIUM, Strain/Indicator: TA100(1,8-DNP), Metabolic Activation: RAT, LIVER, S-9, PCB, Method: PREINCUBATION inactive; negative | Test System: AMES SALMONELLA TYPHIMURIUM, Strain/Indicator: TA100(NR), Metabolic Activation: NONE, Method: PREINCUBATION inactive; negative | Test System: AMES SALMONELLA TYPHIMURIUM, Strain/Indicator: TA100(NR), Metabolic Activation: RAT, LIVER, S-9, PCB, Method: PREINCUBATION inactive; negative
active: Test System: AMES SALMONELLA TYPHIMURIUM, Strain/Indicator: TA98(1,8-DNP), Metabolic Activation: NONE, Method: PREINCUBATION active; positive | Test System: AMES SALMONELLA TYPHIMURIUM, Strain/Indicator: TA98(1,8-DNP), Metabolic Activation: RAT, LIVER, S-9, PCB, Method: PREINCUBATION active; positive | Test System: AMES SALMONELLA TYPHIMURIUM, Strain/Indicator: TA98(NR), Metabolic Activation: NONE, Method: PREINCUBATION active; positive | Test System: AMES SALMONELLA TYPHIMURIUM, Strain/Indicator: TA98(NR), Metabolic Activation: RAT, LIVER, S-9, PCB, Method: PREINCUBATION active; positive | [1] active; positive | [2] active; positive | [3] active; positive | [4] active; positive | Test System: AMES SALMONELLA TYPHIMURIUM, Strain/Indicator: YG1020, Metabolic Activation: NONE, Method: PREINCUBATION active; positive | Test System: AMES SALMONELLA TYPHIMURIUM, Strain/Indicator: YG1020, Metabolic Activation: RAT, LIVER, S-9, PCB, Method: PREINCUBATION active; positive | Test System: AMES SALMONELLA TYPHIMURIUM, Strain/Indicator: YG1021, Metabolic Activation: NONE, Method: PREINCUBATION active; positive | Test System: AMES SALMONELLA TYPHIMURIUM, Strain/Indicator: YG1021, Metabolic Activation: RAT, LIVER, S-9, PCB, Method: PREINCUBATION active; positive | Test System: AMES SALMONELLA TYPHIMURIUM, Strain/Indicator: YG1024, Metabolic Activation: NONE, Method: PREINCUBATION active; positive | Test System: AMES SALMONELLA TYPHIMURIUM, Strain/Indicator: YG1024, Metabolic Activation: RAT, LIVER, S-9, PCB, Method: PREINCUBATION active; positive | Test System: AMES SALMONELLA TYPHIMURIUM, Strain/Indicator: YG1025, Metabolic Activation: NONE, Method: PREINCUBATION active; positive | Test System: AMES SALMONELLA TYPHIMURIUM, Strain/Indicator: YG1025, Metabolic Activation: RAT, LIVER, S-9, PCB, Method: PREINCUBATION active; positive | Test System: AMES SALMONELLA TYPHIMURIUM, Strain/Indicator: YG1026, Metabolic Activation: NONE, Method: PREINCUBATION active; positive | Test System: AMES SALMONELLA TYPHIMURIUM, Strain/Indicator: YG1026, Metabolic Activation: RAT, LIVER, S-9, PCB, Method: PREINCUBATION active; positive | Test System: AMES SALMONELLA TYPHIMURIUM, Strain/Indicator: YG1029, Metabolic Activation: NONE, Method: PREINCUBATION active; positive | Test System: AMES SALMONELLA TYPHIMURIUM, Strain/Indicator: YG1029, Metabolic Activation: RAT, LIVER, S-9, PCB, Method: PREINCUBATION active; positive
